A value given as a limit tells only on which side of the number the result lay.

By IC50 is commonly meant the concentration that gives 50% inhibition.

Sequence of ROCK-II (h) (O75116 whole entry): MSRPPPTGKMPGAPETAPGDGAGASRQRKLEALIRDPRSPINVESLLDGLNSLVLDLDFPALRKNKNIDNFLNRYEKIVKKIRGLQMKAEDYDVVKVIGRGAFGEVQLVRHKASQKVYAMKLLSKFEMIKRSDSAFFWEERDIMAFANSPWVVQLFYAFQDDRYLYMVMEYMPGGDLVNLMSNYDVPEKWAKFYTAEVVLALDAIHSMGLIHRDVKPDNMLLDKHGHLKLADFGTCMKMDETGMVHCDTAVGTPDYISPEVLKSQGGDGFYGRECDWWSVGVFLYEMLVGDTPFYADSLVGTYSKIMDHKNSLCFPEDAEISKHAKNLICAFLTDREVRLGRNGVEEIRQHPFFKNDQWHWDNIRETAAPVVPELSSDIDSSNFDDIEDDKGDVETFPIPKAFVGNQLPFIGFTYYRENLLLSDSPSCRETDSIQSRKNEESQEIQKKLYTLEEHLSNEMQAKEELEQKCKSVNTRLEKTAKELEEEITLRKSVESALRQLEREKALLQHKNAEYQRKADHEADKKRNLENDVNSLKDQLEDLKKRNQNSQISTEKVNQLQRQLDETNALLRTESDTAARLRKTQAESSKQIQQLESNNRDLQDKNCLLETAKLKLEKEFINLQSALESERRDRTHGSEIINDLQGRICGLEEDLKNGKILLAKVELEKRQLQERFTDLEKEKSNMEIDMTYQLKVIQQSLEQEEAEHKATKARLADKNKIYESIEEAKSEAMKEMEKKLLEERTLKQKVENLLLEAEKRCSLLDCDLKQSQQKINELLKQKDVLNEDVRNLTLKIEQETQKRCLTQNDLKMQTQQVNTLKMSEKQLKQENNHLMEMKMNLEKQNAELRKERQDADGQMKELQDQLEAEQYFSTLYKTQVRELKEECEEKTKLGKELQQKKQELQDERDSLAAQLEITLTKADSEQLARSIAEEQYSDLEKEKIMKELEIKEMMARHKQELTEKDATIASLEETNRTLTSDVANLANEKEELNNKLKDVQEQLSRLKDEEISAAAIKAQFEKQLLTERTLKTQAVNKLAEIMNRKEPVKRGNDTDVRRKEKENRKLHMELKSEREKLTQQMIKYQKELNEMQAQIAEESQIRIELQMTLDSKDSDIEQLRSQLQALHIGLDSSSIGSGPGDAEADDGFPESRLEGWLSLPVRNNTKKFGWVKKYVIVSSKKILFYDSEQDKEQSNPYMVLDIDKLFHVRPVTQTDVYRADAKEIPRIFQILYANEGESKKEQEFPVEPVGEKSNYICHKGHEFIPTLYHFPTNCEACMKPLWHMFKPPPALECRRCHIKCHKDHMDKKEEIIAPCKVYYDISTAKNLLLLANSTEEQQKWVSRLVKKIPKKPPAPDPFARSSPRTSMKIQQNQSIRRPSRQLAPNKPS

The target of the first test is ROCK-II (h) (Homo sapiens, UniProt O75116). Description: ROCK-II (h) assay (radiometric, 33P-ATP filtermat). Format: biochemical. The note with it: read-out: IC50 (anti-ROCK-II activity). Here is the method:
ROCK-II (h) Assay Protocol
In a final reaction volume of 25 μl, ROCK-II (h) (5-10 mU) is incubated with 50 mM Tris pH 7.5, 0.1 mM EGTA, 30 μM […], 10 mM MgAcetate and [γ-^33P-ATP] (specific activity approx. 500 cpm/pmol, concentration as required). The reaction is initiated by the addition of the MgATP mix. After incubation for 40 minutes at room temperature, the reaction is stopped by the addition of 5 μl of a 3% phosphoric acid solution. 10 μl of the reaction is then spotted onto a P30 filtermat and washed three times for 5 minutes in 75 mM phosphoric acid and once in methanol prior to drying and scintillation counting.
The compounds of examples 14, 22, 23, 57, 59 and 84 were tested for anti-ROCK-II activity (assay as described above): […]
Take `NCC(O)(c1ccc(Cl)cc1)c1ccc(-c2cn[nH]c2)cc1` (stereo not drawn) [Example 84, 2-Amino-1-(4-chloro-phenyl)-1-[4-(1H-pyrazol-4-yl)-phenyl]-ethanol]: the IC50 was < 100 nM.

As for `CNC[C@@H](c1ccc(Cl)cc1)c1ccc(-c2cn[nH]c2)cc1` [Example 22, {2-(4-Chloro-phenyl)-2-[4-(1H-pyrazol-4-yl)-phenyl]-ethyl}-methyl-amine (R)], the IC50 is < 100 nM. `CNC[C@H](c1ccc(Cl)cc1)c1ccc(-c2cn[nH]c2)cc1` [Example 23, {2-(4-Chloro-phenyl)-2-[4-(1H-pyrazol-4-yl)-phenyl]-ethyl}-methyl-amine (S)]: the IC50 is < 100 nM. In the case of `Clc1ccc(C2(c3ccc(-c4cn[nH]c4)cc3)CCNCC2)cc1` [Example 14, 4-(4-Chloro-phenyl)-4-[4-(1H-pyrazol-4-yl)-phenyl]-piperidine], the IC50 was < 100 nM. The same measure, in the same setting: next, `Clc1ccc(C(c2ccc(-c3cn[nH]c3)cc2)N2CCNCC2)cc1` (stereo not drawn) [Example 57, 1-{(4-Chloro-phenyl)-[4-(1H-pyrazol-4-yl)-phenyl]-methyl}-piperazine]: < 100 nM.

Turning to `CNCCC(Oc1cccc(Cl)c1)c1ccc(-c2cn[nH]c2)cc1` (stereo not drawn) [Example 59, {3-(3-Chloro-phenoxy)-3-[4-(1H-pyrazol-4-yl)-phenyl]-propyl}-methyl-amine], the IC50 was < 100 nM.

A further test concerns MM1 cells.
Assay: not given
The note with it: continuous delivery using osmotic pumps; syngeneic rats; cited from earlier work.
On to `C[C@@H](N)[C@H]1CC[C@H](C(=O)Nc2ccncc2)CC1` [Example Y-27632], for which the “dissemination of MM1 cells” value is “considerably reduced”.

For a further test, the system named is rat MM1 hepatoma cells.
Assay: not given
The note with it: cited from earlier work.
For `C[C@@H](N)[C@H]1CC[C@H](C(=O)Nc2ccncc2)CC1` [Example Y-27632], the “Rho-mediated activation of actomyosin” value was “blocked” and the “invasive activity of MM1 cells” value is recorded as “blocked”.

The next test has as its system isolated rabbit urinary bladder smooth muscle.
Assay: not given
As to conditions: cited from earlier work.
Turning to `C[C@@H](N)[C@H]1CC[C@H](C(=O)Nc2ccncc2)CC1` [Example Y-27632], the bethanechol-evoked contractions entry is on record as “attenuates”.

The target of a further test is T1, P70S6 kinase (T412E) (Homo sapiens, UniProt P23443, T412E).
T1 construct: purchased Upstate 14-486
T1 sequence (P23443 1-421 T412E limits assumed): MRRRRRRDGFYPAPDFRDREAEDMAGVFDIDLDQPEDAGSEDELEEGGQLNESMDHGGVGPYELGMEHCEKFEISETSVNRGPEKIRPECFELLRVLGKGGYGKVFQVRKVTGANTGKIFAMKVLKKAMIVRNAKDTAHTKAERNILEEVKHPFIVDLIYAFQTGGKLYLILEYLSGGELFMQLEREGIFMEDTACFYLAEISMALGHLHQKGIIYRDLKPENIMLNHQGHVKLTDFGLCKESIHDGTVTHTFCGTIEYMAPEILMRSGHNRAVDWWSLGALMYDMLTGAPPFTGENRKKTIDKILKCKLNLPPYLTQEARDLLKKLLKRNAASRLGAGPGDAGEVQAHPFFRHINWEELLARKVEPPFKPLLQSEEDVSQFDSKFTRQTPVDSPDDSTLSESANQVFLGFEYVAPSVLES
In words: P70s6 radiometric assay. It counts as biochemical. The note with it: ATP approximately 15 μM; enzyme 2 nM; read-out: IC50 (anti-P70S6K activity). Here is the method: P7086 enzyme is bought from Upstate and used at 2 nM in the assay.
In the phosphoryl transfer reaction, the ^33P-γ phosphate from ATP is transferred to the serine residue. The reaction mixture is transferred to a phosphocellulose filter plate where the peptide binds and the unused ATP is washed away. After washing, scintillant is added and the incorporated activity measured by scintillation counting.
S6 kinase substrate cocktail from Upstate (#20-122)
• 10 mM MOPS pH 7.0 • 0.1 mg/ml BSA • 0.001% Brij-35 • 0.5% glycerol • 0.2 mM EDTA • 10 mM MgCl2 • 0.01% β-mercaptoethanol • Made as a 10× stock, stored at […] in 2 ml aliquots • 15 μM ATP
ATP will break down over time, keep on ice as far as possible and use small aliquots to ensure the stock is fresh. • γ^33P-ATP APBiotech (BF1000) • 12.5% orthophosphoric acid • 0.5% orthophosphoric acid • Microscint 20 (Packard) Assay Preparation • Enzyme mix (per 1 ml—100 assay points): • 743.75 μl H2O • […] • 3.75 μl 10 mM ATP • 2.5 μl enzyme • Substrate mix (per 1 ml—100 assay points): • 250 μl S6 cocktail substrate • 750 μl H2O • 3.5 μl ^33P-ATP (BF1000 from APBiotech)
Compounds—prepare a dilution curve in DMSO in a polypropylene 96 well plate to 40× final assay concentration (final DMSO 2.5%).
In a polypropylene 96 well plate add in order: • 5 μl compound • 10 μl substrate mix • 10 μl enzyme mix
Final ATP concentration is approximately 15 μM. KM for ATP calculated to 47 uM radiometrically. Controls are “no compound” (DMSO only) and “no enzyme” (use 10 μl of the enzyme mix prior to adding enzyme). Cover with a plate seal (TopSeal A—Packard) or plastic lid from filter plate (moderate radiation barrier). Mix by gentle shaking. Incubate at room temperature for 50 minutes. Stop the reaction by adding 20 μl of 2% orthophosphoric acid.
Pre-wet the wells of a Millipore MAPH NOB plate with 50 μl of 0.5% orthophosphoric acid wash buffer. Filter the liquid through on a Millipore vacuum filtration unit. Transfer the whole of the stopped reaction to the wells. Filter through. Wash twice with 200 μl of 0.5% orthophosphoric acid wash buffer. Vacuum to near dryness. Remove the plate support and allow to the filters to dry further on tissue paper. Snap the plate into an adapter for the Packard TopCount. Add 20 μl of Microscint 20 scintillant, seal with a sheet of Topseal A and count for 30 s on the TopCount.
The compounds of examples 4, 13, 21, 22, 23, 42, 47, 71, 84, 85 and 98 were tested for anti-P70S6K activity (assay as described above): […]
Regarding `CNCC(c1ccc(Cl)cc1)c1ccc(-c2cn[nH]c2)cc1` (stereo not drawn) [Example 21, {2-(4-Chloro-phenyl)-2-[4-(1H-pyrazol-4-yl)-phenyl]-ethyl}-methyl-amine], the IC50 is < 100 nM. For the compound `NCC(O)(c1ccc(Cl)cc1)c1ccc(-c2cn[nH]c2)cc1` (stereo not drawn) [Example 84, 2-Amino-1-(4-chloro-phenyl)-1-[4-(1H-pyrazol-4-yl)-phenyl]-ethanol], the IC50 was < 100 nM. As for `NCC(c1ccc(-c2cn[nH]c2)cc1)c1ccc(Cl)c(Cl)c1` (stereo not drawn) [Example 98, 2-(3,4-Dichloro-phenyl)-2-[4-(1H-pyrazol-4-yl)-phenyl]-ethylamine], the IC50 was < 100 nM. As for `Clc1ccc(C2(c3ccc(-c4cn[nH]c4)cc3)CCNCC2)cc1Cl` [Example 85, 4-(3,4-Dichloro-phenyl)-4-[4-(1H-pyrazol-4-yl)-phenyl]-piperidine], the IC50 is < 100 nM.

As for `CNC[C@@H](c1ccc(Cl)cc1)c1ccc(-c2cn[nH]c2)cc1` [Example 22, {2-(4-Chloro-phenyl)-2-[4-(1H-pyrazol-4-yl)-phenyl]-ethyl}-methyl-amine (R)], the IC50 is < 100 nM. For the compound `CNC[C@H](c1ccc(Cl)cc1)c1ccc(-c2cn[nH]c2)cc1` [Example 23, {2-(4-Chloro-phenyl)-2-[4-(1H-pyrazol-4-yl)-phenyl]-ethyl}-methyl-amine (S)], the IC50 was < 100 nM. Still for that read-out and setting: to `CNCC(c1ccc(Oc2cnccn2)cc1)c1ccc(-c2cn[nH]c2)cc1` (stereo not drawn) [Example 47, Methyl-{2-[4-(pyrazin-2-yloxy)-phenyl]-2-[4-(1H-pyrazol-4-yl)-phenyl]-ethyl}-amine] belongs < 100 nM; to `CNCC(c1ccc(Cl)cc1)c1ccc(-c2cn[nH]c2)cc1` (stereo not drawn) [Example 42, {2-(4-Chloro-phenyl)-2-[4-(1H-pyrazol-4-yl)-phenyl]-ethyl}-methyl-amine], < 100 nM. Turning to `CNCC(Oc1ccc(Cl)cc1)c1ccc(-c2cn[nH]c2)cc1` (stereo not drawn) [Example 71, {2-(4-Chloro-phenoxy)-2-[4-(1H-pyrazol-4-yl)-phenyl]-ethyl}-methyl-amine], the IC50 was < 100 nM. Still for that read-out and setting: to `NCC(c1ccc(Cl)cc1)c1ccc(-c2cn[nH]c2)cc1` (stereo not drawn) [Example 4, 2-(4-Chloro-phenyl)-2-[4-(1H-pyrazol-4-yl)-phenyl]-ethylamine] belongs < 100 nM.

With `NCCC(c1ccc(-c2cn[nH]c2)cc1)c1ccc(Cl)c(Cl)c1` (stereo not drawn) [Example 13, 3-(3,4-Dichloro-phenyl)-3-[4-(1H-pyrazol-4-yl)-phenyl]-propylamine], the IC50 was < 100 nM.

The values are drawn from patent US8343953B2, “Pharmaceutical compounds” (Astex Therapeutics Limited, priority 2005, dated 2013).
